The numbers were not newly measured in patent publication US20110257192A1, “COMPOUND FOR TREATMENT OF RESPIRATORY CONDITION OR DISEASE” (BIOTA SCIENTIFIC MANAGEMENT PTY LTD, priority 2010, published 2011), which cites them from elsewhere.

Each structure is given as a SMILES string.

The conditions of this series: administered orally.

As for `Cc1cc(CCCOc2c(C)cc(-c3noc(C(F)(F)F)n3)cc2C)on1` [pleconaril], the “effect on asthma exacerbation” value is listed as “did not have an effect on asthma exacerbation”.
